Common to all, as to assay: NCI-60 cell line screen, 48 h
Assay [1] concerns A549 NSCLC.
Assay [2] relates to COLO 205 colon.
Assay [3] has as its system HT29 colon.
The test system of assay [4] is IGROV1 ovarian.
Assay [5] relates to LOX IMVI melanoma.
In assay [6] the test system is M14 melanoma.
Assay [7] relates to RXF 393 renal.
For assay [8], the system named is SF-268 CNS.
Assay [9] concerns SK-MEL-5 melanoma.
For assay [10], the system named is SN12C renal.
The test system of assay [11] is SR leukemia.
Assay [12] has as its system SW-620 colon.
Assay [13] has as its system DU-145 prostate.
Assay [14] concerns MCF7 breast.

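48-hour exposure; five concentrations; linearly interpolated endpoints. TGI is the concentration that stops growth completely.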

Regarding `Cc1ccc(NC(=O)CCc2nnc3s/c(=C\c4cccc([N+](=O)[O-])c4)c(=O)n23)cc1`, the TGI in [1], in assay [2], in assay [3], in assay [4], in [5] and in [6] was greater than 100 µM in each case. Besides, the TGI in assay [7] is greater than 100 µM; in assay [8], greater than 100 µM; in assay [9] it was greater than 100 µM; in [10], greater than 100 µM; in [11], greater than 100 µM; in [12] it was 38.6 µM.
On to `CCOc1ccc(N2C(=O)NC3(c4ccccc4)N(C)C(=O)N(C)C23c2ccccc2)cc1` (configuration not stated), for which the TGI in [1], in [2], in assay [13], in assay [3], in assay [4] and in [5] was greater than 100 µM throughout. In addition, the TGI in assay [6], in assay [14], in assay [7], in assay [9], in [10] and in assay [11] was greater than 100 µM in each case. Besides, the TGI in assay [12] was greater than 100 µM.
As for `Cc1ccc(C(=O)C(c2nc3n(c2O)C(=N)N=N3)c2nc3n(c2O)C(=N)N=N3)cc1` (configuration not stated), the TGI in assay [1], in assay [2], in assay [3], in [4], in assay [5] and in assay [6] was greater than 100 µM in each case. The TGI in [7], in [8], in assay [9], in assay [10] and in assay [12] was greater than 100 µM throughout.
On to `CC(=O)NNc1nc(C)c(C(/C=C/c2ccc(Cl)cc2)=N\N=C(N)N)s1`, for which the TGI in [1], in assay [2], in assay [3], in assay [4], in assay [5] and in assay [6] was greater than 100 µM throughout. For the same molecule, the TGI in [7], in assay [8], in [9], in [10], in assay [11] and in [12] was greater than 100 µM each time.
As for `CN1C(=S)CSc2ccccc21`, the TGI in [1], in [2], in assay [3], in assay [4], in assay [5] and in assay [6] was greater than 100 µM throughout. Besides, the TGI in assay [7], in assay [8], in assay [9], in assay [10], in assay [11] and in [12] was greater than 100 µM in each case.
For the molecule `CSCCC(NC(=O)Cc1ccc(C(=O)c2ccccc2)cc1)C(=O)N1CCN(CCCCN2c3ccccc3Sc3cc(N=[N+]=[N-])ccc32)CC1` (configuration not stated), the TGI in [2], in assay [13], in [3], in assay [4], in assay [5] and in [14] was greater than 100 µM throughout. For the same molecule, the TGI in assay [7], in assay [8], in assay [9] and in assay [10] was greater than 100 µM in each case.
With `Cc1cc(N(CCC#N)CCC#N)ccc1/C=C1N=C(/C=C/c2ccccc2)N(c2ccc(S(N)(=O)=O)cc2)C\1=O`, the TGI in assay [1], in assay [2], in assay [3], in [4], in assay [5] and in [6] was greater than 100 µM each time. Further, the TGI in [8], in [9], in [10], in assay [11] and in [12] was greater than 100 µM throughout.
For `COc1cccc(N2C(=O)/C(=C/c3ccc(N(CCC#N)CCC#N)cc3)N=C2c2cc([N+](=O)[O-])ccc2Cl)c1`, the TGI in assay [2] is 62.4 µM; in [3], greater than 100 µM; in [4], greater than 100 µM; in assay [6] it was greater than 100 µM; in [8] it was greater than 100 µM; in [9], greater than 100 µM. Besides, the TGI in [10], in assay [11] and in [12] was greater than 100 µM in each case.
As for `N#CCCN(C1=NN(C(=O)CC(=O)Nc2ccc(Cl)cc2)C(c2ccccc2)C1)c1ccc(Cl)cc1` (configuration not stated), the TGI in assay [1], in [2], in [3], in assay [4], in assay [5] and in assay [6] was greater than 100 µM each time. The TGI in assay [7], in assay [8], in assay [9], in assay [10], in [11] and in assay [12] was greater than 100 µM each time.
As to `Cc1cc(Cl)ccc1NC(=O)CC1SC(=NC(=O)c2ccccc2Cl)NC1=O` (configuration not stated), the TGI in assay [1] is greater than 100 µM; in assay [3], 45 µM; in assay [4], greater than 100 µM; in assay [5], 38.6 µM; in assay [6], 32 µM; in [7], 35.1 µM. The TGI in assay [8] is 36.7 µM; in assay [9], 95.7 µM; in assay [10] it was 33.5 µM; in assay [11] it was 34.5 µM; in [12], 32.3 µM.
On to `COC(=O)CN=C1NC(=S)N(Cc2ccc(OC)cc2)C12CCCC2`, for which the TGI in assay [1], in assay [2], in [13], in assay [3], in assay [6] and in assay [14] was greater than 100 µM each time. For the same molecule, the TGI in [7], in assay [8], in assay [10], in assay [11] and in assay [12] was greater than 100 µM throughout.
Turning to `COc1ccc(Cc2cc(OC)c(OC)c(OC)c2)cc1`, the TGI in assay [1] is greater than 100 µM; in assay [2], 1.51 µM; in assay [13], 6.38 µM; in assay [3], 8.25 µM; in assay [4], greater than 100 µM; in assay [5], greater than 89.7 µM. Further, the TGI is greater than 100 µM in assay [6]; greater than 100 µM in assay [14]; 3.38 µM in assay [7]; greater than 100 µM in assay [8]; 21.2 µM in [9]; greater than 89.3 µM in [10]. In addition, the TGI in assay [11] was 1.4 µM; in [12], greater than 100 µM.
Take `O=C1N=CN=C2C=CC(Cl)=C(I)C12` (configuration not stated): the TGI in assay [1], in [2], in [3], in [4], in assay [5] and in assay [6] was greater than 100 µM throughout. Moreover, the TGI in [7] was 70.8 µM; in [8], greater than 100 µM; in assay [9], greater than 100 µM; in assay [10] it was greater than 100 µM; in [11] it was greater than 100 µM; in [12], greater than 100 µM.
On to `CO[C@H](C(=O)O[C@H]1C(=O)N2CC[C@@H]3CCC[C@H]1C32C)c1ccccc1` (some centres not stated), for which the TGI in [1], in assay [2], in assay [3], in assay [4], in [5] and in assay [6] was greater than 100 µM each time. Moreover, the TGI in [7], in assay [8], in assay [9], in assay [10], in [11] and in [12] was greater than 100 µM each time.
Turning to `O=C1C[C@@H]2[C@@H](CCC23CCCC3)N1`, the TGI in [1], in assay [2], in [3], in assay [4], in assay [5] and in assay [6] was greater than 100 µM in each case. In addition, the TGI in [7], in assay [8], in assay [9], in [10] and in assay [12] was greater than 100 µM each time.
For the molecule `O=C(CSc1nnc(Cc2ccccc2)o1)Nc1ccc(Cl)cc1[N+](=O)[O-]`, the TGI in assay [1] worked out at 35.6 µM; in assay [2], 46.4 µM; in [3] it was 49.2 µM; in assay [5] it was 26.3 µM; in assay [6], 32.9 µM; in [7], 33.4 µM. For the same molecule, the TGI is 40.2 µM in assay [8]; 30.9 µM in assay [9]; 31.4 µM in assay [10]; greater than 100 µM in assay [11]; 53.8 µM in assay [12].
`COC(=O)C1CC(c2ccc(Cl)cc2)=NO1` (configuration not stated): the TGI in assay [1], in assay [2], in assay [3], in assay [4], in [6] and in [8] was greater than 100 µM each time. Also, the TGI in [9], in assay [10], in [11] and in [12] was greater than 100 µM each time.
Consider `Cc1cc(O)c2c(c1)C(C1OC(CO)C(O)C(O)C1O)c1cc(O)cc(O)c1C2=O` (configuration not stated), for which the TGI in [1], in assay [2], in assay [13], in assay [3], in assay [4] and in [6] was greater than 100 µM in each case. Also, the TGI in [14], in assay [8], in [9], in [10], in [11] and in assay [12] was greater than 100 µM each time.
In the case of `CC1OC(OC2C(OC(=O)[C@]34CCC(C)(C)CC3C3=CCC5[C@@]6(C)C[C@H](O)[C@H](OC7OC(COC8OC(CO)C(O)C(O)C8O)C(O)C(O)C7O)[C@@](C)(C(=O)O)C6CC[C@@]5(C)C3(C)CC4)OCC(O)C2O)C(O)C(O)C1OC1OCC(O)C(O)C1O` (some centres not stated), the TGI in assay [1], in [2], in [3], in assay [4], in assay [5] and in [7] was greater than 100 µM in each case. The TGI in assay [8], in [9], in assay [10] and in assay [12] was greater than 100 µM in each case.
On to `CCCCC(O)(c1ccccc1)C(O)(c1ccccc1)c1c(F)c(F)c(F)c(F)c1F` (configuration not stated), for which the TGI is greater than 100 µM in assay [1]; greater than 100 µM in assay [13]; 32.3 µM in [3]; greater than 100 µM in assay [4]; greater than 100 µM in assay [6]; 53.1 µM in [14]. Moreover, the TGI in [8] worked out at 53.1 µM; in [9] it was 35.5 µM; in assay [10] it was 31.1 µM; in [11], 76.7 µM; in [12], 61.8 µM.
Turning to `N#CC(C(=O)/C(=N/NC(=O)c1ccccc1O)C(C#N)c1ccc(Br)cc1)c1ccc(Br)cc1` (configuration not stated), the TGI in assay [1] amounted to 39.9 µM; in assay [2], 30.1 µM; in [3] it was 33.9 µM; in assay [4] it was 33.3 µM; in assay [5], 23 µM; in [6], 29 µM. The TGI in assay [7] turned out to be 16 µM; in [9] it was 21.5 µM; in assay [10], 21.9 µM; in assay [12], 18.1 µM.
For `CN(C)CCCOc1ccc(/C=C2/CCC/C(=C/c3ccc(OCCCN(C)C)cc3)C2=O)cc1`, the TGI in assay [1] stood at 6.28 µM; in assay [2], 3.2 µM; in assay [4] it was 6.78 µM; in [5] it was 3.29 µM; in [6], 6.07 µM; in assay [7], 2.98 µM. Further, the TGI was 4.84 µM in [8], 3.92 µM in assay [9], 2.96 µM in assay [10] and 3.73 µM in assay [12].

The values above are taken from PubChem BioAssay (NCI).
